{"source": "the supplement of paper PMC10307832", "data": [{"compound": "Cc1ccc(NC(=O)c2ccc(CN3CCN(C)CC3)cc2)cc1Nc1nc(-c2cccnc2)cs1 [Masitinib] + Cc1nc(NC(=O)N2CCC[C@H]2C(N)=O)sc1-c1ccnc(C(C)(C)C(F)(F)F)c1 [Alpelisib] (partner 2 µM)", "test": "relative viability (nuclei count vs DMSO), 5 days (fraction); higher = more cells survive", "conditions": "first compound 1 µM", "summary_of_the_method": "(§1)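 Relative viability is defined as nuclei in treated wells over nuclei in vehicle wells. Duplicate plates were run and medians reported. Lung cancer cell lines in 1536-well plates were dosed by pin tool one day after seeding, with one drug or with a fixed anchor-drug dose plus five library-drug doses (not always all listed) in √10 steps, and nuclei were counted after 5 days.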", "values": [{"cell line": "IA-LM", "relative viability": 0.787}, {"cell line": "HCC-44", "relative viability": 0.834}, {"cell line": "A549", "relative viability": 0.683}, {"cell line": "NCI-H2023", "relative viability": 0.548}, {"cell line": "NCI-H520", "relative viability": 1.02}, {"cell line": "SW 1573", "relative viability": 0.66}, {"cell line": "NCI-H1299", "relative viability": 1.05}, {"cell line": "NCI-H1563", "relative viability": 0.931}, {"cell line": "NCI-H1792", "relative viability": 0.698}, {"cell line": "SK-LU-1", "relative viability": 1.03}, {"cell line": "SK-MES-1", "relative viability": 0.732}, {"cell line": "NCI-H661", "relative viability": 0.47}]}, {"compound": "CC1=CC(=CC=C1)NC2=NC(=CS2)C3=CC=NC=C3 + NC(=O)Nc1cc(-c2cccc(F)c2)sc1C(=O)N[C@H]1CCCNC1 [AZD7762] (partner 0.2 µM)", "test": "relative viability (nuclei count vs DMSO), 5 days (fraction); higher = more cells survive", "conditions": "first compound 0.08 µM", "summary_of_the_method": "as §1", "values": [{"cell line": "NCI-H522", "relative viability": 0.681}, {"cell line": "NCI-H838", "relative viability": 0.812}, {"cell line": "NCI-H1651", "relative viability": 0.5}, {"cell line": "NCI-H1734", "relative viability": 0.559}, {"cell line": "LU99A", "relative viability": 0.36}, {"cell line": "PC-14", "relative viability": 0.254}, {"cell line": "LCLC-103H", "relative viability": 0.73}, {"cell line": "NCI-H596", "relative viability": 0.913}, {"cell line": "EMC-BAC-2", "relative viability": 0.933}, {"cell line": "NCI-H2087", "relative viability": 1.41}, {"cell line": "HCC-366", "relative viability": 0.32}, {"cell line": "NCI-H1703", "relative viability": 0.121}, {"cell line": "NCI-H647", "relative viability": 0.379}, {"cell line": "NCI-H2126", "relative viability": 0.967}, {"cell line": "NCI-H2342", "relative viability": 0.44}, {"cell line": "NCI-H1793", "relative viability": 0.366}, {"cell line": "H3255", "relative viability": 0.936}, {"cell line": "ChaGo-K-1", "relative viability": 0.842}, {"cell line": "HCC-44", "relative viability": 0.849}, {"cell line": "SW 900", "relative viability": 0.65}, {"cell line": "NCI-H1648", "relative viability": 0.662}, {"cell line": "NCI-H1792", "relative viability": 0.459}]}, {"compound": "CC1=CC(=CC=C1)NC2=NC(=CS2)C3=CC=NC=C3 + NC(=O)Nc1cc(-c2cccc(F)c2)sc1C(=O)N[C@H]1CCCNC1 [AZD7762] (partner 0.2 µM)", "test": "relative viability (nuclei count vs DMSO), 5 days (fraction); higher = more cells survive", "conditions": "first compound 0.253 µM", "summary_of_the_method": "as §1", "values": [{"cell line": "NCI-H522", "relative viability": 0.822}, {"cell line": "NCI-H838", "relative viability": 0.924}, {"cell line": "NCI-H1651", "relative viability": 0.473}, {"cell line": "NCI-H1734", "relative viability": 0.554}, {"cell line": "LU99A", "relative viability": 0.326}, {"cell line": "PC-14", "relative viability": 0.28}, {"cell line": "LCLC-103H", "relative viability": 0.755}, {"cell line": "NCI-H596", "relative viability": 0.98}, {"cell line": "EMC-BAC-2", "relative viability": 1.02}, {"cell line": "NCI-H2087", "relative viability": 1.29}, {"cell line": "HCC-366", "relative viability": 0.322}, {"cell line": "NCI-H1703", "relative viability": 0.127}, {"cell line": "NCI-H647", "relative viability": 0.372}, {"cell line": "LK-2", "relative viability": 0.429}, {"cell line": "NCI-H2126", "relative viability": 1.09}, {"cell line": "NCI-H2342", "relative viability": 0.403}, {"cell line": "NCI-H1793", "relative viability": 0.487}, {"cell line": "H3255", "relative viability": 0.902}, {"cell line": "ChaGo-K-1", "relative viability": 0.83}, {"cell line": "HCC-44", "relative viability": 0.853}, {"cell line": "SW 900", "relative viability": 0.576}, {"cell line": "NCI-H1648", "relative viability": 0.568}, {"cell line": "NCI-H1792", "relative viability": 0.529}]}, {"compound": "CC1=CC(=CC=C1)NC2=NC(=CS2)C3=CC=NC=C3 + NC(=O)Nc1cc(-c2cccc(F)c2)sc1C(=O)N[C@H]1CCCNC1 [AZD7762] (partner 0.2 µM)", "test": "relative viability (nuclei count vs DMSO), 5 days (fraction); higher = more cells survive", "conditions": "first compound 0.8 µM", "summary_of_the_method": "as §1", "values": [{"cell line": "NCI-H522", "relative viability": 0.803}, {"cell line": "NCI-H838", "relative viability": 0.85}, {"cell line": "NCI-H1651", "relative viability": 0.416}, {"cell line": "NCI-H1734", "relative viability": 0.528}, {"cell line": "LU99A", "relative viability": 0.361}, {"cell line": "PC-14", "relative viability": 0.383}, {"cell line": "LCLC-103H", "relative viability": 0.725}, {"cell line": "NCI-H596", "relative viability": 0.959}, {"cell line": "EMC-BAC-2", "relative viability": 1.14}, {"cell line": "NCI-H2087", "relative viability": 1.14}, {"cell line": "HCC-366", "relative viability": 0.266}, {"cell line": "NCI-H1703", "relative viability": 0.14}, {"cell line": "NCI-H647", "relative viability": 0.558}, {"cell line": "LK-2", "relative viability": 0.555}, {"cell line": "NCI-H2126", "relative viability": 1.06}, {"cell line": "NCI-H2342", "relative viability": 0.505}, {"cell line": "NCI-H1793", "relative viability": 0.522}, {"cell line": "H3255", "relative viability": 0.866}, {"cell line": "ChaGo-K-1", "relative viability": 0.835}, {"cell line": "HCC-44", "relative viability": 0.946}, {"cell line": "SW 900", "relative viability": 0.745}, {"cell line": "NCI-H1648", "relative viability": 0.676}, {"cell line": "NCI-H1792", "relative viability": 0.628}]}, {"compound": "CC1=CC(=CC=C1)NC2=NC(=CS2)C3=CC=NC=C3 + NC(=O)Nc1cc(-c2cccc(F)c2)sc1C(=O)N[C@H]1CCCNC1 [AZD7762] (partner 0.2 µM)", "test": "relative viability (nuclei count vs DMSO), 5 days (fraction); higher = more cells survive", "conditions": "first compound 2.53 µM", "summary_of_the_method": "as §1", "values": [{"cell line": "NCI-H522", "relative viability": 0.848}, {"cell line": "NCI-H838", "relative viability": 0.928}, {"cell line": "NCI-H1651", "relative viability": 0.426}, {"cell line": "NCI-H1734", "relative viability": 0.647}, {"cell line": "LU99A", "relative viability": 0.374}, {"cell line": "PC-14", "relative viability": 0.247}, {"cell line": "LCLC-103H", "relative viability": 0.74}, {"cell line": "NCI-H596", "relative viability": 1.15}, {"cell line": "EMC-BAC-2", "relative viability": 0.909}, {"cell line": "NCI-H2087", "relative viability": 1.43}, {"cell line": "HCC-366", "relative viability": 0.24}, {"cell line": "NCI-H1703", "relative viability": 0.148}, {"cell line": "NCI-H647", "relative viability": 0.382}, {"cell line": "LK-2", "relative viability": 0.36}, {"cell line": "NCI-H2126", "relative viability": 0.95}, {"cell line": "NCI-H2342", "relative viability": 0.377}, {"cell line": "NCI-H1793", "relative viability": 0.789}, {"cell line": "H3255", "relative viability": 0.665}, {"cell line": "ChaGo-K-1", "relative viability": 0.828}, {"cell line": "HCC-44", "relative viability": 0.876}, {"cell line": "SW 900", "relative viability": 0.508}, {"cell line": "NCI-H1648", "relative viability": 0.469}, {"cell line": "NCI-H1792", "relative viability": 0.755}]}, {"compound": "CC1=CC(=CC=C1)NC2=NC(=CS2)C3=CC=NC=C3 + NC(=O)Nc1cc(-c2cccc(F)c2)sc1C(=O)N[C@H]1CCCNC1 [AZD7762] (partner 0.2 µM)", "test": "relative viability (nuclei count vs DMSO), 5 days (fraction); higher = more cells survive", "conditions": "first compound 8 µM", "summary_of_the_method": "as §1", "values": [{"cell line": "NCI-H522", "relative viability": 0.852}, {"cell line": "NCI-H838", "relative viability": 0.829}, {"cell line": "NCI-H1651", "relative viability": 0.366}, {"cell line": "NCI-H1734", "relative viability": 0.558}, {"cell line": "LU99A", "relative viability": 0.442}, {"cell line": "PC-14", "relative viability": 0.316}, {"cell line": "LCLC-103H", "relative viability": 0.651}, {"cell line": "NCI-H596", "relative viability": 0.86}, {"cell line": "EMC-BAC-2", "relative viability": 1.17}, {"cell line": "NCI-H2087", "relative viability": 1.17}, {"cell line": "HCC-366", "relative viability": 0.128}, {"cell line": "NCI-H1703", "relative viability": 0.112}, {"cell line": "NCI-H647", "relative viability": 0.414}, {"cell line": "LK-2", "relative viability": 0.618}, {"cell line": "NCI-H2126", "relative viability": 0.981}, {"cell line": "NCI-H2342", "relative viability": 0.523}, {"cell line": "NCI-H1793", "relative viability": 0.407}, {"cell line": "H3255", "relative viability": 0.765}, {"cell line": "ChaGo-K-1", "relative viability": 0.75}, {"cell line": "HCC-44", "relative viability": 0.88}, {"cell line": "SW 900", "relative viability": 0.26}, {"cell line": "NCI-H1648", "relative viability": 0.469}, {"cell line": "NCI-H1792", "relative viability": 0.524}]}, {"compound": "CC1=CC(=CC=C1)NC2=NC(=CS2)C3=CC=NC=C3 + Cc1cc(Nc2cc(N3CCN(C)CC3)nc(Sc3ccc(NC(=O)C4CC4)cc3)n2)n[nH]1 [Tozasertib] (partner 0.1 µM)", "test": "relative viability (nuclei count vs DMSO), 5 days (fraction); higher = more cells survive", "conditions": "first compound 0.08 µM", "summary_of_the_method": "as §1", "values": [{"cell line": "NCI-H522", "relative viability": 0.539}, {"cell line": "NCI-H1623", "relative viability": 0.393}, {"cell line": "NCI-H838", "relative viability": 0.229}, {"cell line": "NCI-H1651", "relative viability": 0.62}, {"cell line": "NCI-H1734", "relative viability": 0.25}, {"cell line": "NCI-H2009", "relative viability": 0.737}, {"cell line": "LU99A", "relative viability": 0.247}, {"cell line": "PC-14", "relative viability": 0.527}, {"cell line": "LCLC-103H", "relative viability": 0.529}, {"cell line": "NCI-H596", "relative viability": 0.93}, {"cell line": "NCI-H2228", "relative viability": 0.24}, {"cell line": "EMC-BAC-2", "relative viability": 0.261}, {"cell line": "NCI-H2087", "relative viability": 0.197}, {"cell line": "HCC-366", "relative viability": 0.126}, {"cell line": "NCI-H647", "relative viability": 0.266}, {"cell line": "NCI-H2126", "relative viability": 0.77}, {"cell line": "NCI-H2342", "relative viability": 0.533}, {"cell line": "NCI-H1793", "relative viability": 0.298}, {"cell line": "H3255", "relative viability": 0.627}, {"cell line": "COR-L23", "relative viability": 0.186}, {"cell line": "COR-L 105", "relative viability": 0.348}, {"cell line": "ChaGo-K-1", "relative viability": 0.227}, {"cell line": "HCC-44", "relative viability": 0.743}, {"cell line": "SW 900", "relative viability": 0.533}, {"cell line": "NCI-H1648", "relative viability": 0.387}, {"cell line": "NCI-H2023", "relative viability": 0.332}, {"cell line": "NCI-H520", "relative viability": 0.372}, {"cell line": "SW 1573", "relative viability": 0.184}, {"cell line": "NCI-H1650", "relative viability": 0.531}, {"cell line": "SK-LU-1", "relative viability": 0.301}, {"cell line": "SK-MES-1", "relative viability": 0.708}]}]}
